Assay results as given in patent US9056923B2, “Mimetic peptides derived from collagen type IV and their use for treating angiogenesis- and lymphagiogenesis-dependent diseases” (THE JOHNS HOPKINS UNIVERSITY, priority 2010, dated 2015).
Ends that are not written are not given here.

Tests used:
HUVEC [1] = assay type: cell-based, human
Method in brief: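 Adhesion of 25,000 cells per well, with or without peptide, followed by real-time electrical impedance on electrode plates over 3 hours. At least two independent replicates, each run in duplicate.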

HUVEC [2] = test: HUVEC migration assay (RT-CIM); assay type: cell-based, human
Method in brief: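 Real-time impedance (RT-CIM) transwell migration through fibronectin-coated (20 μg/mL) 8 μm membranes; 45,000 cells/well in serum-free medium ± peptides, fully supplemented EBM-2 as chemoattractant below. Cell index recorded over 20 h at 37 °C; ≥2 independent replicates, each in duplicate.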

Substance: LRRFSTMPFMFININNVINF-NH2 [SP2024]
- IC50 (HUVEC [1]; 3 h): 2.35 ± 1.3 µM
- Adhesion Inhibition (100 uM) (HUVEC [1]; HUVEC, 100 uM peptide): 94.45%
- Activity in Adhesion (HUVEC [1]; HUVEC, Yes/No summary, active = inhibitory potential greater than 30%): Yes
- Migration Inhibition (5 uM) (HUVEC [2]; 5 uM peptide): 37.73%
- Activity in Migration (HUVEC [2]; Yes/No summary, active = inhibitory potential greater than 30%): Yes
